Laboratory results taken from BindingDB's records for patent US11858959 (Ardelyx, 2024).

Biological target: T1, 11-beta-hydroxysteroid dehydrogenase type 2 (Homo sapiens, UniProt P80365)
T1 sequence (P80365 whole entry): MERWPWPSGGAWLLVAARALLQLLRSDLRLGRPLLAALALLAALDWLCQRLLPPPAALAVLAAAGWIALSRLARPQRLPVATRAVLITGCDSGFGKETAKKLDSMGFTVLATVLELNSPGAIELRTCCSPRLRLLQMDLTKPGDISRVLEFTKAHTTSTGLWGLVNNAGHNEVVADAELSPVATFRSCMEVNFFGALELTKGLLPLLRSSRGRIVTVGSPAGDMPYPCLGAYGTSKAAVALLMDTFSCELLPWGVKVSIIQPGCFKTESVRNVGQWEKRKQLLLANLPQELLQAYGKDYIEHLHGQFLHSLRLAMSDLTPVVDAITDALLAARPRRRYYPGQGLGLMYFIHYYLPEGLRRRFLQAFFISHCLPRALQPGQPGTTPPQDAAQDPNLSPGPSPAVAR
Assay: HSD2 Activity
Procedure: Human descending colon epithelial stem cells were cultured as 3D organoids in accordance with Sato et al Gastroenterology. 2011 November; 141(5): 1762-72. Organoids were dissociated using TrypLE Express (life technologies) and plated on 96-well transwells (corning) in supplemented basal media (SBM-advanced DMEM/F12 containing 10 mM HEPES, 1:100 Glutamax, 1:100 penicillin/streptomycin, 1:100N2, 1:50 B27, 1 mM N-acetylcysteine, 10 nM [Leu15]-gastrin I) containing 100 ng/mL Wnt3A (W), 50 ng/mL EGF (E), 100 ng/mL Noggin (N), 500 ng/mL RSpondinl (R), 500 nM A83-01 (S) and 2.5 uM thiazovivin (T). Cultures were differentiated using SBM containing ENRA and 30 nM aldosterone on day 3, and cultures were used for assay on day 6 or 7. Compounds were diluted in DMSO and serial dilutions prepared by titrating in DMSO. Compounds were then diluted into DMEM/F12. Transwell plates containing descending colon cultures were washed twice with DMEM/F12 and compound was added to the apical compartment. Cells were incubated with test compound for 30 minutes at 37 C., 5% CO2 to equilibrate across the cell membrane. […] Cortisol levels were measured using a cortisol HTRF assay kit as described by the manufacturer (Cisbio). Concentration-response curves were then plotted and IC50 (and pIC50) values were determined using least squares non-linear regression.

Compound `Cc1oc(=O)oc1COC(=O)[C@]1(C)[C@@H](OC(=O)CN(C)C)CC[C@@]2(C)[C@H]1CC[C@]1(C)[C@@H]2C(=O)C=C2[C@@H]3C[C@@](C)(C(=O)O)CC[C@]3(C)CC[C@]21C` [US11858959, Compound 290-2] has an IC50 of 251 nM.
